Test results as given in US20050009840A1 (SUGEN, INC., priority 2003, published 2005).

biological target: T1, Met kinase domain (GST fusion protein) (Homo sapiens, UniProt P08581); assay: Met transphosphorylation assay (ELISA, poly(glu-tyr) substrate); format: biochemical; conditions: Table 2; read-out: Met IC50;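 also: Cell-free ELISA with plate-bound poly(Glu:Tyr 4:1) phosphorylated by GST-fused Met kinase domain plus ATP and Mn2+, phosphotyrosine detected by anti-phosphotyrosine antibody with HRP and ABTS read-out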
T1 construct: Purified GST fusion protein containing the Met kinase domain
T1 sequence (P08581 1078-1345 limits assumed): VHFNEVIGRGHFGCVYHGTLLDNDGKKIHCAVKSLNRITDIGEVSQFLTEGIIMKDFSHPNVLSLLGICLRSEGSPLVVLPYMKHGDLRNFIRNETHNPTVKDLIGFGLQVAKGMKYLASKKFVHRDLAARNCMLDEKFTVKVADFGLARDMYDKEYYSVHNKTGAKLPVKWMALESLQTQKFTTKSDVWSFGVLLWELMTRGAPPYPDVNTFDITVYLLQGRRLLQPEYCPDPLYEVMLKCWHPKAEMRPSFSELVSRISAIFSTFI

Compound | IC50 [µM]
CN(C)[C@H]1CCN(C(=O)c2ccc(-c3cnc(N)c(OCc4ccccc4C(F)(F)F)c3)cc2)C1 [Example I-185, {4-[6-Amino-5-(2-trifluoromethyl-benzyloxy)-pyridin-3-yl]-phenyl}-[(3S)-3-dimethylamino-pyrrolidin-1-yl]-methanone] | 1.39
Nc1ncc(-c2ccc(C(=O)N3CC[C@H](N)C3)cc2)cc1OCc1ccccc1C(F)(F)F [Example I-186, [(3S)-3-Amino-pyrrolidin-1-yl]-{4-[6-amino-5-(2-trifluoromethyl-benzyloxy)-pyridin-3-yl]-phenyl}-methanone] | 0.79
CN1CCN(C(=O)c2ccc(-c3cnc(N)c(OCc4ccccc4C(F)(F)F)c3)cc2)CC1 [Example I-188, {4-[6-Amino-5-(2-trifluoromethyl-benzyloxy)-pyridin-3-yl]-phenyl}-(4-methyl-piperazin-1-yl)-methanone] | 1.64
Nc1ncc(-c2ccc(C(=O)NCCN3CCOCC3)cc2)cc1OCc1ccccc1C(F)(F)F [Example I-191, 4-[6-Amino-5-(2-trifluoromethyl-benzyloxy)-pyridin-3-yl]-N-(2-morpholin-4-yl-ethyl)-benzamide] | 5.2
Nc1ncc(-c2ccc(C(=O)NCCCN3CCOCC3)cc2)cc1OCc1ccccc1C(F)(F)F [Example I-192, 4-[6-Amino-5-(2-trifluoromethyl-benzyloxy)-pyridin-3-yl]-N-(3-morpholin-4-yl-propyl)-benzamide] | 3.8
Nc1ncc(-c2ccc(C(=O)NCCCN3CCOCC3)cc2)cc1OCc1ccc(F)cc1Cl [Example I-210, 4-[6-Amino-5-(2-chloro-4-fluoro-benzyloxy)-pyridin-3-yl]-N-(3-morpholin-4-yl-propyl)-benzamide] | 5.8
CN(C)[C@H]1CCN(C(=O)c2ccc(-c3cnc(N)c(OCc4c(F)ccc(F)c4Cl)c3)cc2)C1 [Example I-217, {4-[6-Amino-5-(2-chloro-3,6-difluoro-benzyloxy)-pyridin-3-yl]-phenyl}-[(3S)-3-dimethylamino-pyrrolidin-1-yl]-methanone] | 0.12

The next lines start with the values.

IC50 [µM] | Compound
3.8 | CN1CCN(C(=O)c2ccc(-c3cnc(N)c(OCc4ccc(C(C)(C)C)cc4)c3)cc2)CC1 [Example I-197, {4-[6-Amino-5-(4-tert-butyl-benzyloxy)-pyridin-3-yl]-phenyl}-(4-methyl-piperazin-1-yl)-methanone]
3 | CC(=O)N1CCN(C(=O)c2ccc(-c3cnc(N)c(OCc4ccc(C(C)(C)C)cc4)c3)cc2)CC1 [Example I-198, 1-(4-{4-[6-Amino-5-(4-tert-butyl-benzyloxy)-pyridin-3-yl]-benzoyl}-piperazin-1-yl)-ethanone]
6.88 | CC(C)(C)c1ccc(COc2cc(-c3ccc(C(=O)NCCN4CCOCC4)cc3)cnc2N)cc1 [Example I-200, 4-[6-Amino-5-(4-tert-butyl-benzyloxy)-pyridin-3-yl]-N-(2-morpholin-4-yl-ethyl)-benzamide]
61 | CN(C)[C@H]1CCN(C(=O)c2ccc(-c3cnc(N)c(OCc4ccc(F)cc4Cl)c3)cc2)C1 [Example I-205, {4-[6-Amino-5-(2-chloro-4-fluoro-benzyloxy)-pyridin-3-yl]-phenyl}-[(3S)-3-dimethylamino-pyrrolidin-1-yl]-methanone]
1.83 | Nc1ncc(-c2ccc(C(=O)N3CC[C@H](N)C3)cc2)cc1OCc1ccc(F)cc1Cl [Example I-206, {4-(6-Amino-5-(2-chloro-4-fluoro-benzyloxy)-pyridin-3-yl]-phenyl}-[(3S)-3-amino-pyrrolidin-1-yl]-methanone]
5 | CN1CCN(C(=O)c2ccc(-c3cnc(N)c(OCc4ccc(F)cc4Cl)c3)cc2)CC1 [Example I-207, {4-(6-Amino-5-(2-chloro-4-fluoro-benzyloxy)-pyridin-3-yl]-phenyl}-(4-methyl-piperazin-1-yl)-methanone]
5.3 | CC(=O)N1CCN(C(=O)c2ccc(-c3cnc(N)c(OCc4ccc(F)cc4Cl)c3)cc2)CC1 [Example I-208, 1-(4-{4-(6-Amino-5-(2-chloro-4-fluoro-benzyloxy)-pyridin-3-yl]-benzoyl}-piperazin-1-yl)-ethanone]
11 | Nc1ncc(-c2ccc(C(=O)NCCN3CCOCC3)cc2)cc1OCc1ccc(F)cc1Cl [Example I-209, 4-[6-Amino-5-(2-chloro-4-fluoro-benzyloxy)-pyridin-3-yl]-N-(2-morpholin-4-yl-ethyl)-benzamide]
0.35 | Nc1ncc(-c2ccc(C(=O)O)cc2)cc1OCc1c(F)ccc(F)c1Cl [Example I-211, 4 [6 Amino-5-(2-chloro-3,6-difluoro-benzyloxy)-pyridin-3-yl]-benzoic acid]
0.063 | CN1CCN(C(=O)c2ccc(-c3cnc(N)c(OCc4c(F)ccc(F)c4Cl)c3)cc2)CC1 [Example I-212, {4-[6-Amino-5-(2-chloro-3,6-difluoro-benzyloxy)-pyridin-3-yl]-phenyl}-(4-methyl-piperazin-1-yl)-methanone]
0.1 | Nc1ncc(-c2ccc(C(=O)N3CCC(N)CC3)cc2)cc1OCc1c(F)ccc(F)c1Cl [Example I-214, {4-[6-Amino-5-(2-chloro-3,6-difluoro-benzyloxy)-pyridin-3-yl]-phenyl}-(4-amino-piperidin-1-yl)-methanone]
0.053 | Nc1ncc(-c2ccc(C(=O)N3CC[C@@H](N)C3)cc2)cc1OCc1c(F)ccc(F)c1Cl [Example I-218, {4-[6-Amino-5-(2-chloro-3,6-difluoro-benzyloxy)-pyridin-3-yl]-phenyl}-[(3R)-3-amino-pyrrolidin-1-yl]-methanone]
0.095 | Nc1ncc(-c2ccc(C(=O)N3CC[C@H](N)C3)cc2)cc1OCc1c(F)ccc(F)c1Cl [Example I-219, {4-[6-Amino-5-(2-chloro-3,6-difluoro-benzyloxy)-pyridin-3-yl]-phenyl}-[(3S)-3-amino-pyrrolidin-1-yl]-methanone]
0.11 | CN1CCC(NC(=O)c2ccc(-c3cnc(N)c(OCc4c(F)ccc(F)c4Cl)c3)cc2)CC1 [Example I-220, 4-[6-Amino-5-(2-chloro-3,6-difluoro-benzyloxy)-pyridin-3-yl]-N-(1-methyl-piperidin-4-yl)-benzamide]
0.18 | Nc1ncc(-c2ccc(C(=O)NCCN3CCCC3)cc2)cc1OCc1c(F)ccc(F)c1Cl [Example I-221]

same assay, conditions: read-out: Met IC50

IC50 [µM] | Compound
0.79 | CN1CCN(C(=O)c2ccc(-c3cnc(N)c(OCc4ccc(Cl)cc4Cl)c3)cc2)CC1 [Example I-177, {4-[6-Amino-5-(2,4-dichloro-benzyloxy)-pyridin-3-yl]-phenyl}-(4-methyl-piperazin-1-yl)-methanone]
1.67 | CC(=O)N1CCN(C(=O)c2ccc(-c3cnc(N)c(OCc4ccc(Cl)cc4Cl)c3)cc2)CC1 [Example I-178, 1-(4-{4-[6-Amino-5-(2,4-dichloro-benzyloxy)-pyridin-3-yl]-benzoyl}-piperazin-1-yl)-ethanone]
3.8 | Nc1ncc(-c2ccc(C(=O)NCCN3CCOCC3)cc2)cc1OCc1ccc(Cl)cc1Cl [Example I-180, 4-[6-Amino-5-(2,4-dichloro-benzyloxy)-pyridin-3-yl]-N-(2-morpholin-4-yl-ethyl)-benzamide]

Compound | IC50 [µM]
Nc1ncc(-c2ccc(C(=O)NCCCN3CCOCC3)cc2)cc1OCc1ccc(Cl)cc1Cl [Example I-181, 4-[6-Amino-5-(2,4-dichloro-benzyloxy)-pyridin-3-yl]-N-(3-morpholin-4-yl-propyl)-benzamide] | 2
